Assay results taken from patent US20260184726A1, “HETEROCYCLIC COMPOUNDS AS KINASE INHIBITORS, COMPOSITIONS, AND METHODS OF USE THEREOF” (JS INNOMED HOLDINGS LTD., priority 2022, published 2026).

Key:
[1] = molecular target: T1, human Aurora B kinase (Homo sapiens, UniProt Q96GD4); assay: Aurora B Kinase Assay (mobility shift assay, ATP at Km); type: biochemical; settings: 15 μM ATP (Km), read-out: AurB Enzymatic Activity
T1 construct: purchased Carna 05-102
Procedure: Compounds were tested by Mobility shift assay with ATP concentration at Km. The assay used human Aurora B kinase (Carna 05-102). Test compounds were prepared and diluted in DMSO in 3-fold serial dilutions to 50× of the final testing concentrations. The compounds were then further diluted to 5× by the kinase reaction buffer (50 mM HEPES pH 7.5, 0.0015% Brij-35). The enzymatic reaction for compound testing was performed in a white 384-well polypropylene plate (Corning 3573) with a total reaction volume of 25 μl containing 9 nM Aurora B, 3 μM peptide substrate FAM-P21 (GL Biochem 116370), and 15 μM ATP (Sigma A7699-1G). The assay started with loading Aurora B diluted in kinase reaction buffer to wells, followed by addition of equal volume of 5× compounds for 15-min incubation at the room temperature for pre-treatment. The enzymatic reaction was initiated by addition of mixture of the substrate and ATP prepared in kinase reaction buffer. After incubation at 28° C. for one hour, 25 μl of stopper buffer (a mixture of 100 mM HEPES pH 7.5 buffer, 0.015% Brij-35, 50 mM EDTA and 0.2% of coating reagent 3 (Cliper Lifesciences)). After 30 minutes of incubation at room temperature, the plate was read in a Caliper. Percent of control was calculated as the percentage of compound-treated vs 2% DMSO vehicle-treated. The dose-response curves were generated and the IC50 values were calculated by nonlinear sigmoid curve fitting using XLFit.

[2] = molecular target: T2, human KDR kinase (Homo sapiens, UniProt P35968); assay: KDR Kinase Assay (mobility shift assay, ATP at Km); type: biochemical; settings: 92 μM ATP (Km), read-out: KDR Enzymatic Activity
T2 construct: purchased Carna 08-191
Procedure: Compounds were tested by Mobility shift assay with ATP concentration at Km. The assay used human KDR kinase (Carna 08-191). Test compounds were prepared and diluted in DMSO in 3-fold serial dilutions to 50× of the final testing concentrations. The compounds were then further diluted to 5× by the kinase reaction buffer (50 mM HEPES pH 7.5, 0.0015% Brij-35). The enzymatic reaction for compound testing was performed in a white 384-well polypropylene plate (Corning 3573) with a total reaction volume of 25 μl containing 1.2 nM KDR, 3 μM peptide substrate FAM-P22 (GL Biochem 112393), and 92 μM ATP (Sigma A7699-1G). The assay started with loading RET diluted in kinase reaction buffer to wells, followed by addition of equal volume of 5× compounds for 15-min incubation at the room temperature for pre-treatment. The enzymatic reaction was initiated by addition of mixture of the substrate and ATP prepared in kinase reaction buffer. After incubation at 28° C. for one hour, 25 μl of stopper buffer (a mixture of 100 mM HEPES pH 7.5 buffer, 0.015% Brij-35, 50 mM EDTA and 0.2% of coating reagent 3 (Cliper Lifesciences)). After 30 minutes of incubation at room temperature, the plate was read in a Caliper. Percent of control was calculated as the percentage of compound-treated vs 2% DMSO vehicle-treated. The dose-response curves were generated and the IC50s were calculated by nonlinear sigmoid curve fitting using XLFit.

T1 sequence (Q96GD4 whole entry): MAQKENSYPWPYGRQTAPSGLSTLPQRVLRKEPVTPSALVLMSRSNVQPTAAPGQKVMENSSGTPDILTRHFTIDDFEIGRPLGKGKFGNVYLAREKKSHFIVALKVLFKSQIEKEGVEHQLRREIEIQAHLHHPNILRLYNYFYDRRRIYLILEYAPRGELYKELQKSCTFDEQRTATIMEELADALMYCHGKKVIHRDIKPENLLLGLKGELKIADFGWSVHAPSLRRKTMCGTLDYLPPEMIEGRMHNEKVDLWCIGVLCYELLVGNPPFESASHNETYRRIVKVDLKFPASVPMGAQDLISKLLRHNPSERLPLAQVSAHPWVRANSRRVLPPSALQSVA
T1 sequence (Q9NQS7 803-918 partner limits assumed): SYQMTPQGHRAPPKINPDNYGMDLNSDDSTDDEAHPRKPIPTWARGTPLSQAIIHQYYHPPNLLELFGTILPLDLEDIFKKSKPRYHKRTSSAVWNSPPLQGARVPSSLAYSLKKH
T2 sequence (P35968 20-1356): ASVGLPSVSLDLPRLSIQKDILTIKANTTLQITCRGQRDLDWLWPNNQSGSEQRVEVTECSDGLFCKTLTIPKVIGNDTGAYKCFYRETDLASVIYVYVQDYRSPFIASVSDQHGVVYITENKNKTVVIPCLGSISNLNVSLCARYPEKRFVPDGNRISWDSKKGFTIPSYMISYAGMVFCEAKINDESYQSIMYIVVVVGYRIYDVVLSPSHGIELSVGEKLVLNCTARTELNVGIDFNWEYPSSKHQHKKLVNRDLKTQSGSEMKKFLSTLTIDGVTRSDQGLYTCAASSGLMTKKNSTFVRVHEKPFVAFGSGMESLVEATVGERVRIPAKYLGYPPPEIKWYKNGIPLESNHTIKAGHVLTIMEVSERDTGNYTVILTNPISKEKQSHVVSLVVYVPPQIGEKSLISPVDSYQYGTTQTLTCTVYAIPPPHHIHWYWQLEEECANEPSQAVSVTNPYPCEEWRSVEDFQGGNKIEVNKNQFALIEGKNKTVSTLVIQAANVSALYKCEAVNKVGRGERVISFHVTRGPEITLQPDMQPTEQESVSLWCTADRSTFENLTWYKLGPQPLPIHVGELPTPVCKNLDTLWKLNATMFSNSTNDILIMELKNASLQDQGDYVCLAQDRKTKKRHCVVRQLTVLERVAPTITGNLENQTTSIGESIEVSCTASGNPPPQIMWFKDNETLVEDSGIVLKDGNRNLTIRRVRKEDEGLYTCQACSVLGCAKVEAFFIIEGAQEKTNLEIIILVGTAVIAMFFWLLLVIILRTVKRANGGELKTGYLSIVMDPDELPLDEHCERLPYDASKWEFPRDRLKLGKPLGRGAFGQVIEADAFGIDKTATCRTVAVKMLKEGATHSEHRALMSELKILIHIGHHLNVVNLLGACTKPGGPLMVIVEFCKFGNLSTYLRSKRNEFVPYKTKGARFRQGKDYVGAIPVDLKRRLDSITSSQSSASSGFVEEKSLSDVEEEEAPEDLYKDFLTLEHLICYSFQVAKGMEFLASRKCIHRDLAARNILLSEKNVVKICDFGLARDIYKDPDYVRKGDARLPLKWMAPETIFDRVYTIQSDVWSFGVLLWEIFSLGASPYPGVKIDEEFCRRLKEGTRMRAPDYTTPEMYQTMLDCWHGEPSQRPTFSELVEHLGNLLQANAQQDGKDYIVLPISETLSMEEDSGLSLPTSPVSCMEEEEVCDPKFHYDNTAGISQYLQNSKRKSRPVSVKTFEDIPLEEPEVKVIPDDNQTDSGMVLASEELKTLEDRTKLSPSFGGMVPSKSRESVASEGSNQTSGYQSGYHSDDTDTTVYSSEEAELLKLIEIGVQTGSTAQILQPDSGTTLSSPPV

COc1ccc(CN2C3CC2CN(c2ccc(-c4cc(-c5ccc(C(C)(C)NC(C)=O)cn5)cn5ncc(C#N)c45)cn2)C3)cn1 [Example 12, N-(2-(6-(3-cyano-4-(6-(6-((6-methoxypyridin-3-yl)methyl)-3,6-diazabicyclo[3.1.1]heptan-3-yl)pyridin-3-yl)pyrazolo[1,5-a]pyridin-6-yl)pyridin-3-yl)propan-2-yl)acetamide]
IC50 [1]: 25.2 nM | IC50 [2]: 2 nM
